In patent US9949473B2, “Coagulation controlling agents and devices comprising the same” (Becton, Dickinson and Company, priority 2011, dated 2018):
Ends that are not written are not given here.

Assays:
thrombin [1] = target: T1, thrombin (Homo sapiens, UniProt P00734); test: Accelerated stability of sprayed thrombin with para-aminobenzamidine (thrombin activity on Stago Compact); format: biochemical; conditions: para-aminobenzamidine about 3 mM in about 5 mM citrate or isocitrate pH about 6.1; sealed tubes at about 43° C., about 75% relative humidity; compared to citrates alone; FIG. 6, FIG. 7
T1 construct: In preferred embodiments, thrombin is alpha-thrombin
Experimental: The coagulation controlling agent para-aminobenzamidine was evaluated to determine if it improved the stability of sprayed thrombin under accelerated stability conditions. Without wishing to be bound by any particular theory, it is believed that para-aminobenzamidine stabilizes the spray-dried thrombin under conditions of extremely high humidity, where thrombin autolytic degradation can be rapid, even at room temperature.
Thrombin was prepared in about 5 mM citrate or isocitrate at a pH of about 6.1. Para-aminobenzamidine was added at a concentration of about 3 mM. About 16 μL of this solution was sprayed into 13×100 mm PET tubes. The tubes were dried by forced hot air, and evacuated. Sealed tubes were then placed in a controlled environmental chamber previously equilibrated to about 43° C. and about 75% relative humidity. At various time intervals, the tubes were removed and evaluated for thrombin activity on the Stago Compact coagulation analyzer. The error bars indicate the 95% confidence interval for the thrombin activity with 5 replicates.

[2] = system: freshly drawn human blood; test: Visual scoring of fibrin mass in serum from blood clotted in thrombin/protamine tubes; conditions: protamine about 0.5 mg/mL; FIG. 2
Experimental: Protamine sulfate was first resuspended in about 0.5 M hydrochloric acid at a concentration of about 250 mg/mL. This solution was then titrated to a pH of about 6 with 5 N sodium hydroxide. This titration to about pH 6 was performed immediately since prolonged exposure of protamine to low pH, it was believed, would result in hydrolysis and loss of activity. It is also believed that more dilute solutions of hydrochloric acid could be used for preparing the protamine solution.
The protamine solution was then mixed in a ratio of about 1:1 with a solution of about 1250 U/mL of thrombin in about 40 mM sodium citrate at about pH 6.0, containing about 20 mg/mL of a siloxane alkoxylate surfactant, and 2 mg/mL polyvinylpyrrolidone (PVP).
The resulting reagent was filtered and sprayed in 20 μL shots into 13×100 mm polyethyleneterephthalate (PET) tubes. The tubes were then dried by forced hot air, and evacuated and stoppered.
Tubes were filled with freshly drawn human blood and allowed to clot for between about 1 to about 3.5 minutes (randomized) and then centrifuged. The resulting serum was scored by visual assessment for the presence of a “fibrin mass” in the serum compartment on a scale of 0 to 3, with 3 being the most severe.

[3] = system: reconstituted commercial lyophilized human plasma; test: Clotting time of plasma with thrombin/protamine solutions on Stago Compact coagulation analyzer; format: biochemical; conditions: thrombin and protamine in about 20 mM citrate pH about 6, mixed about 1:1 with plasma; FIG. 3
Experimental: Solutions of thrombin and protamine in about 20 mM of citrate at a pH of about 6 were mixed in a ratio of about 1:1 with reconstituted commercial lyophilized human plasma and tested on a Stago Compact coagulation analyzer. The resulting clotting times were measured as a function of thrombin and protamine concentration for a given thrombin concentration. The concentrations listed on the graph of FIG. 3 represent the thrombin/protamine solutions before being mixed with the plasma.

thrombin [4] = target: T1, thrombin; test: Accelerated stability of sprayed thrombin with protamine (thrombin activity on Stago Compact); format: biochemical; conditions: about 45% relative humidity
Experimental: A mixture of thrombin (about 1250 U/mL), protamine (about 125 mg/mL or about 62.5 mg/mL), and a siloxane alkoxylate surfactant was prepared in about 20 mM citrate at a pH of about 6.0. About 20 μL of this mixture was sprayed into 13×100 mm PET tubes. The tubes were dried by forced hot air, evacuated, and stored in the refrigerator. At the initiation of the study, the tubes were uncapped and placed in a controlled environmental chamber previously equilibrated to about 50° C. and about 45% relative humidity. At various time intervals, tubes were removed and evaluated for thrombin activity on the Stago Compact coagulation analyzer. The error bars indicate the 95% confidence interval for the thrombin activity with 5 replicates.
When the thrombin activity of subsequent time points were normalized on the initial value, the resulting curves could be used to compare the relative stability of each formulation (see FIG. 5).

N=C(N)c1ccc(N)cc1 [para-aminobenzamidine]
thrombin stability over time (thrombin [1]): preserves thrombin stability over time

Protamine sulfate (PRRRRSSSRPVRRRRRPRVSRRRRRRGGRRRR; also: sulfate salt) [coagulation controlling agent; ID; NO; 1 in some embodiments]
performance of the tube (fibrin mass formation) [2]: improved the performance of the tube dramatically
clotting time as a function of protamine concentration [3]: decreasing clotting time with increasing protamine concentration
relative stability (thrombin activity normalized on the initial value) (thrombin [4]; about 50° C., compared with thrombin formulations without protamine, FIG. 5): more stable
thrombin activity over time (thrombin [4]; thrombin about 1250 U/mL, protamine about 125 or about 62.5 mg/mL, sprayed and dried in PET tubes, uncapped at about 50° C., FIG. 4): better with the protamine than without it
